# Experiments:
# tumor-recruited MDSCs = conditions: mouse tumor models; cited from earlier work
# CT26-MUC1 cells = experiment: Survival in CT26 colon cancer tumor model; assay type: in vivo, BALB/c mice; conditions: 44 days post tumor implantation; MVATG9931 5×10^7 pfu day 2 and 9; sildenafil 80 mg/kg/day drinking water day 0 to 28; 12 mice per group
# melanoma = melanoma bearing mice; cited from earlier work
# HBV RNA (AAV2/8-HBV) = experiment: Serum HBV RNA by RT-qPCR in HBV-persistent mice; assay type: in vivo, C57BL/6J mice; conditions: sildenafil only 5 mg/kg/day (group b), over the experiment
# Description: The graph illustrates the median level of HBV RNA determined in the serum of 6 mice per group (groups a, b, e and f) treated with sildenafil at 5 mg/kg/day (group b) or with AdTG18201 alone (group e) or with a combination of AdTG18201 and sildenafil (at 5 mg/kg/day, group f). The control group a is untreated. The Y-axis indicates the median HBV RNA level (log 10 copies/mL) and the X-axis the time (number of days post-AAV2/8-HBV injection). Time points of AdTG18201 immunization (D36, D43, D50) are shown by a dashed line and the period of sildenafil treatment (from D31 to 59) is shown by a horizontal bar on the X axis.
# HBV DNA/RNA extraction was performed using the MagMax-96 viral RNA isolation kit from Ambion according to manufacturer's protocol. Briefly, 50 μL of serum was added to 20 μL of reconstituted RNA/DNA binding beads. Plate was shaken for 1 minute on a thermomixer (Eppendorf Thermomixer compact) at 600-700 rpm. Then, 130 μL of lysis/binding solution, spiked with qPCR kit internal extraction control DNA, were added before additional shaking for 10 minutes. Beads were captured on a magnetic stand for 3 minutes and after 4 washes the supernatant was discarded. Residual washing solution was removed by drying the beads (shaking of the plate for 3 minutes at 900 rpm). Then, 50 μL of elution buffer was added (shaking of the plate for 3 minutes at 900 rpm). […]
# anti-HBc antibodies = experiment: Anti-HBc antibody level by ELISA in HBV-persistent mice; assay type: in vivo, C57BL/6J mice; conditions: serum 1/2000, up to day 76; sildenafil 20 mg/kg/day D31-59 or D48-76
# Excerpt: Graphs A-F illustrate anti-HBc antibody levels determined respectively in individual mice of the six study groups 1-6. Individual mice are shown as thin line and the group mean titers as bold dotted black line. In all graphs the Y-axis indicates the anti-HBc levels (OD450) and the X-axis the time (number of days post-AAV2/8-HBV injection). Time points of immunization (D36, D43, D50) are shown by a dashed line and the period of sildenafil treatment is shown by a horizontal bar on the top of the graph.
# The HBV persistent mice used in the study were described by Dion et al. (2013, J Virol, 87(10):5554-63). The model is based on the introduction in mice of an adeno-associated virus (AAV) encoding for a full length HBV genome (AAV2/8-HBV) and causing the production of infectious HBV particles in mouse livers. This allows the analysis of HBV-specific viral parameters (HBsAg, HBeAg, HBcAg and viremia) as well as immunological read-outs (ICS, ELISpot or humoral immune responses). […]
# 96-well Immulon 4HBX plates (Thermo Scientific) were coated overnight at +4° C. with 100 μL of recombinant HBc (Prospec) diluted to 1 μg/mL in BupH Carbonate-Bicarbonate buffer (Thermo Scientific Cat#28382). […] Ten minutes later, reaction was stopped by adding of 100 μL per well of 1N HCl and optic density was measured at 450 nm with Tecan Infinity 200 reader. […]
smiles,measurement,setting,value
"CCCc1nn(C)c2c(=O)nc(-c3cc(S(=O)(=O)N4CCN(C)CC4)ccc3OCC)[nH]c12 [sildenafil, 1-[[3-(4,7-dihydro-1-methyl-7-oxo-3-propyl-1H-pyrazolo[4,3-d]pyrimidin-5-yl)-4-ethoxyphenyl]sulfonyl]-4-methylpiperazine]",intratumoral T cell infiltration and activation,tumor-recruited MDSCs,enhance intratumoral T cell infiltration and activation
same,mice still alive (survival),CT26-MUC1 cells,20%
same,"concentration of inflammatory mediators (IL-1β, IL-6, VEGF, GM-CSF, MCP-1) in melanoma lesions",melanoma,significantly diminished
same,tumor progression,melanoma,delay tumor progression
same,median level of viral RNA,HBV RNA (AAV2/8-HBV),around 4.5 log 10 copies/mL serum
same,anti-HBc antibodies induction (OD450),anti-HBc antibodies,no anti-HBc antibodies were induced

# Reference: patent US20190328869A1, “IMMUNOTHERAPEUTIC PRODUCT AND MDSC MODULATOR COMBINATION THERAPY” (Transgene SA, priority 2016, published 2019)
